According to patent US20060281686A1, “Aza-peptides” (priority 2002, published 2006):
*1 amine or outer side, *2 acyl side, *3 side chain or, on linkers, in order; H or OH if unused. Where a SMILES comes first, the peptide text is derived from it. [ ]: non-standard residue; d: D form. azaPhe = O=C(N(Cc1ccccc1)N[*:1])[*:2]; azaPro = O=C(N1CCCN1[*:1])[*:2]

Assays:
[1] = In vitro peptide stability in human plasma; type: in vitro ADME; settings: after 24 h incubation at 37° C. in fresh human plasma; HPLC peak area vs sample incubated in PBS; read-out: % of intact peptide in human plasma
Description: (§1) Peptides were prepared as a 1 μg/μl solution in water. 20 μl of the peptide solution was diluted in 80 μl of fresh human plasma or 10% rat brain homogenate (prepared in PBS). The resulting solution was incubated at 37° C. for different times and the reaction was stopped by adding a complete cocktail of protease inhibitors. The bulk of plasma and brain proteins (but none of the peptide) were precipitated in cold methanol (mix/MeOH, 4/5, v/v) during one hour at −20° C. The precipitated proteins were pelleted by centrifugation (10000 g, 10 min, 4° C.). The supernatant, containing the peptide, was concentrated 5 times under vacuum and separated by reverse-phase HPLC. The area of the peak corresponding to the intact peptide was measured and compared with an equivalent sample incubated in PBS. The results are listed in Table 1 as percentage of intact peptide after 24 h incubation at 37° C. in human plasma and in rat brain homogenate. The values compare favourably with those obtained for the reference compound of Example 8.

[2] = In vitro peptide stability in rat brain homogenate; type: in vitro ADME; settings: after 24 h incubation at 37° C. in 10% rat brain homogenate; HPLC peak area vs sample incubated in PBS; read-out: % of intact peptide in rat brain homogenate
Description: as §1

Compound | remaining at 24 h, 0.2 μg/μl [1] [%] | remaining at 24 h, 0.2 μg/μl [2] [%]
CC(=O)N[C@@H](CC(C)C)C(=O)N1CCC[C@H]1C(=O)NN(Cc1ccccc1)C(=O)N[C@@H](Cc1ccccc1)C(=O)N[C@@H](CC(=O)O)C(N)=O [Example 5, Ac-L-P-F^a-F-D-NH2] (Ac-LP[azaPhe]FD-NH2) | 93 | 71
CC(=O)N[C@@H](CC(C)C)C(=O)N1CCCN1C(=O)N[C@@H](Cc1ccccc1)C(=O)N[C@@H](Cc1ccccc1)C(=O)N[C@@H](CC(=O)O)C(N)=O [Example 6, Ac-L-P^a-F-F-D-NH2] (Ac-L[azaPro]FFD-NH2) | 93 | 80
Ac-LPFFD-NH2 [Example 8, reference compound] | 74 | 2
